Measured values published in publication PMC7116137 (Molecular pharmacology, 2020).

Tests used:
[1] = target: complex of dopamine D1-receptor and wild-type A1R (Homo sapiens, UniProt P21728+P30542); experiment: BRET between D1R-NLuc and eYFP-tagged A1-receptor in HEK293 cells; assay type: cell-based; settings: incubation with ligand 10 μM, response estimated at saturation
wild-type A1R = target: T1, wild-type A1R (Homo sapiens, UniProt P30542); experiment: [35S]GTPγS binding to membranes of HEK293 cells; assay type: biochemical; settings: agonist-stimulated, curve fit; wt A1R
T1 sequence (P30542 1-326): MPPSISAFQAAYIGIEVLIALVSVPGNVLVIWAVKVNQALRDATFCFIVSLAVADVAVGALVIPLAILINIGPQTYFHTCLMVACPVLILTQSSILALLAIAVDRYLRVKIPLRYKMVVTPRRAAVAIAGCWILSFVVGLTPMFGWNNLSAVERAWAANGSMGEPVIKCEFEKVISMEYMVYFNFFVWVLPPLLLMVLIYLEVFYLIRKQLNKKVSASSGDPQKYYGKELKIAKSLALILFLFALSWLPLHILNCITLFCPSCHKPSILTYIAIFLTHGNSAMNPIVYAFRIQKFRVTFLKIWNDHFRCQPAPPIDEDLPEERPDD

complex of dopamine D1-receptor and wild-type A1R, sequence (P21728 whole entry, one chain of several): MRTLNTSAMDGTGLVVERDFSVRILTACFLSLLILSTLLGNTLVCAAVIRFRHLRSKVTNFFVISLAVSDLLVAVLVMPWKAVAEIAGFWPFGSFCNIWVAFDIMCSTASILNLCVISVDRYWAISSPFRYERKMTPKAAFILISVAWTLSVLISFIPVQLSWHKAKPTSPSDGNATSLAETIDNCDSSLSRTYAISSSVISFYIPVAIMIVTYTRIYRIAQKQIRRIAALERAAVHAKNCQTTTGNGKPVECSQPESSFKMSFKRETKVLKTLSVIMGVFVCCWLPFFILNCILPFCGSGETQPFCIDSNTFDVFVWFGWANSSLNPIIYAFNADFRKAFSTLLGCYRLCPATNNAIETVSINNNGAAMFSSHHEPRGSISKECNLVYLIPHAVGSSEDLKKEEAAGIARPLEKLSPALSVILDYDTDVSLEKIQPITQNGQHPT

OC[C@H]1O[C@@H](n2cnc3c(NC4CCCC4)ncnc32)[C@H](O)[C@@H]1O [CPA, N6-cyclopentyladenosine]
Maximum BRET signal [1]: 218 ± 64 milli BRET | maximal [35S]GTPγS binding (95% confidence interval) (wild-type A1R): 91.5 to 101.3 fmol/mg
